Experimental data taken from ChEMBL document CHEMBL5338791, “Discovery of Novel 1,3-Diphenylpyrazine Derivatives as Potent S-Phase Kinase-Associated Protein 2 (Skp2) Inhibitors for the Treatment of Cancer” (J Med Chem, 2023).
The source made the active and inactive calls. No cut-off for these calls is given here.

Experiments:
[1] = Half life in plasma of NOD-SCID mouse model xenografted with human PC-3 cells at 25 mg/kg, IG measured upto 48 hrs by LC-MS/MS analysis; format: ADME, organism-based; conditions: po
[2] = Antitumor activity against human EC1 cells assessed as cell growth inhibition incubated for 72 hrs by MTT assay; format: functional, cell-based; conditions: EC1, 72 h
A549 = assay: Antitumor activity against human A549 cells with low Skp2 expression assessed as cell growth inhibition incubated for 72 hrs by MTT assay; format: functional, cell-based; conditions: A549, 72 h
MGC-803 [3] = assay: Upregulation of p27 level in human MGC-803 cells upto 10 uM by Western blot analysis; format: functional, cell-based; conditions: time 48.0 hrs, TDE = time-dependent effect
PC-3 [4] = assay: Induction of cell cycle arrest in human PC-3 cells assessed as accumulation of cells at S phase at 2.5 uM incubated for 48 hrs by flow cytometry (reference value: 22.44 %); format: functional
PC-3 [5] = assay: Induction of cell cycle arrest in human PC-3 cells assessed as accumulation of cells at G1 phase at 5 uM incubated for 48 hrs by flow cytometry (reference value: 57.39 %); format: functional
MGC-803 [6] = assay: Induction of cell cycle arrest in human MGC-803 cells assessed as accumulation of cells at S phase at 5 uM incubated for 48 hrs by flow cytometry (reference value: 22.72 %); format: functional
MGC-803 [7] = assay: Induction of cell cycle arrest in human MGC-803 cells assessed as accumulation of cells at G1 phase at 10 uM incubated for 48 hrs by flow cytometry (reference value: 54.46 %); format: functional
PC-3 [8] = assay: Induction of cell cycle arrest in human PC-3 cells assessed as accumulation of cells at S phase at 10 uM incubated for 12 hrs by flow cytometry (reference value: 19.7 %); format: functional
PC-3 [9] = assay: Induction of cell cycle arrest in human PC-3 cells assessed as accumulation of cells at G1 phase at 10 uM incubated for 48 hrs by flow cytometry (reference value: 56.81 %); format: functional
PC-3 [10] = assay: Induction of cell cycle arrest in human PC-3 cells assessed as accumulation of cells at G2 phase at 10 uM incubated for 48 hrs by flow cytometry (reference value: 19.34 %); format: functional
MGC-803 [11] = assay: Induction of cell cycle arrest in human MGC-803 cells assessed as accumulation of cells at S phase at 10 uM incubated for 6 hrs by flow cytometry (reference value: 20.41 %); format: functional
MGC-803 [12] = assay: Induction of cell cycle arrest in human MGC-803 cells assessed as accumulation of cells at G1 phase at 10 uM incubated for 12 hrs by flow cytometry (reference value: 57.09 %); format: functional
MGC-803 [13] = assay: Induction of cell cycle arrest in human MGC-803 cells assessed as accumulation of cells at G1 phase at 10 uM incubated for 24 hrs by flow cytometry (reference value: 57.09 %); format: functional
MGC-803 [14] = assay: Induction of cell cycle arrest in human MGC-803 cells assessed as accumulation of cells at G2 phase at 10 uM incubated for 36 hrs by flow cytometry (reference value: 20.64 %); format: functional
MGC-803 [15] = assay: Induction of apoptosis in human MGC-803 cells assessed as nuclear fragmentation incubated for 48 hrs; format: functional, cell-based; conditions: dose <= 10.0 µM
MGC-803 [16] = assay: Induction of apoptosis in human MGC-803 cells assessed as nuclear condensation incubated for 48 hrs; format: functional, cell-based; conditions: dose <= 10.0 µM
MGC-803 [17] = assay: Induction of apoptosis in human MGC-803 cells assessed as cell shrinkage incubated for 48 hrs; format: functional, cell-based; conditions: dose <= 10.0 µM
PC-3 [18] = assay: Induction of apoptosis in human PC-3 cells assessed as late apoptotic cells at 2.5 uM incubated for 48 hrs by annexin V-FITC/PI staining based flow cytometry (reference value: 0.45 %); format: functional
PC-3 [19] = assay: Induction of apoptosis in human PC-3 cells assessed as viable cells at 5 uM incubated for 48 hrs by annexin V-FITC/PI staining based flow cytometry (reference value: 98.6 %); format: functional; conditions: read-out: Activity
PC-3 [20] = assay: Induction of apoptosis in human PC-3 cells assessed as early apoptotic cells at 5 uM incubated for 48 hrs by annexin V-FITC/PI staining based flow cytometry (reference value: 0.85 %); format: functional
MGC-803 [21] = assay: Induction of apoptosis in human MGC-803 cells assessed as early apoptotic cells at 5 uM incubated for 48 hrs by annexin V-FITC/PI staining based flow cytometry (reference value: 0.21 %); format: functional
PC-3 [22] = assay: Antitumor activity against human PC-3 cells xenografted in NOD-SCID mouse model assessed as tumor suppression at 50 mg/kg, IG administered once every 2 days for 21 days relative to control; format: functional; conditions: time 21 day
PC-3 [23] = assay: Antitumor activity against human PC-3 cells xenografted in NOD-SCID mouse model assessed as p27 accumulation at 10 to 50 mg/kg, IG administered once every 2 days for 21 days by Western blot analysis; format: functional, organism-based; conditions: dose 10-50 mg/kg, time 21.0 day
[24] = Toxicity in NOD-SCID mouse model xenografted with human PC-3 cells assessed as change in kidney histology at 10 to 50 mg/kg, IG administered once every 2 days for 21 days by H and E staining based analysis; format: organism-based; conditions: in vivo, po, 504 h, dose 10-50 mg/kg, time 21 day
[25] = Toxicity in NOD-SCID mouse model xenografted with human MGC-803 cells assessed as drug tolerance at 10 to 50 mg/kg, IG administered once every 2 days for 21 days; format: organism-based; conditions: in vivo, po, 504 h, dose 10-50 mg/kg, time 21 day
MGC-803 [26] = assay: Antitumor activity against human MGC-803 cells xenografted in NOD-SCID mouse model assessed as p27 accumulation at 10 to 50 mg/kg, IG administered once every 2 days for 21 days by Western blot analysis; format: functional, organism-based; conditions: dose 10-50 mg/kg, time 21.0 day
[27] = Toxicity in NOD-SCID mouse model xenografted with human MGC-803 cells assessed as change in liver histology at 10 to 50 mg/kg, IG administered once every 2 days for 21 days by H and E staining based analysis; format: organism-based; conditions: in vivo, po, 504 h, dose 10-50 mg/kg, time 21 day
[28] = Toxicity in NOD-SCID mouse model xenografted with human MGC-803 cells assessed as change in lung histology at 10 to 50 mg/kg, IG administered once every 2 days for 21 days by H and E staining based analysis; format: organism-based; conditions: in vivo, po, 504 h, dose 10-50 mg/kg, time 21 day
[29] = Toxicity in mouse assessed as decrease in total protein level at 10 to 50 mg/kg; format: organism-based; conditions: in vivo, dose 10-50 mg/kg
[30] = Toxicity in mouse assessed as decrease in platelet level at 10 to 50 mg/kg; format: organism-based; conditions: dose 10-50 mg/kg
[31] = Metabolic stability in rat liver S9 fraction assessed as half life at 20 umol/L preincubated for 5 mins followed by NADPH addition measured upto 60 mins by LC-MS/MS analysis; format: ADME, subcellular; conditions: dose 20 µmol/L, time < 65 min
[32] = Metabolic stability in mouse liver S9 fraction assessed as half life at 20 umol/L preincubated for 5 mins followed by NADPH addition measured upto 60 mins by LC-MS/MS analysis; format: ADME, subcellular; conditions: dose 20 µmol/L, time < 65 min
[33] = Cmax in plasma of NOD-SCID mouse model xenografted with human PC-3 cells at 25 mg/kg, IG measured upto 48 hrs by LC-MS/MS analysis; format: ADME, organism-based; design: time < 48 hrs, dose 25 mg/kg, route ig; conditions: po
[34] = Apparent volume of distribution in tumor of NOD-SCID mouse model xenografted with human PC-3 cells at 25 mg/kg, IG measured upto 48 hrs by LC-MS/MS analysis; format: ADME, organism-based, Neoplasm; conditions: in vivo, po

## O=C(CCl)NC1CCN(c2cnc(-c3ccccc3)c(-c3ccccc3)n2)CC1
[1]
  half-life: 846 min
[2]
  IC50: 7 µM
A549
  IC50: 18.2 µM
MGC-803 [3]
  Activity: Tde
PC-3 [4]
  Activity: 29.96%
PC-3 [5]
  Activity: 44.65%
MGC-803 [6]
  Activity: 35.78%
MGC-803 [7]
  Activity: 39.31%
PC-3 [8]
  Activity: 32.51%
PC-3 [9]
  Activity: 35.47%
PC-3 [10]
  Activity: 16.14%
MGC-803 [11]
  Activity: 29.93%
MGC-803 [12]
  Activity: 46.55%
MGC-803 [13]
  Activity: 44.68%
MGC-803 [14]
  Activity: 19.76%
MGC-803 [15]
  Activity: Dose-Dependent Effect
MGC-803 [16]
  Activity: Dose-Dependent Effect
MGC-803 [17]
  Activity: Dose-Dependent Effect
PC-3 [18]
  Activity: 4.97%
PC-3 [19]
  viability at 5 µM: 82.5%
PC-3 [20]
  Activity: 0.33%
MGC-803 [21]
  Activity: 3.65%
PC-3 [22]
  Activity: 100%
PC-3 [23]
  Activity: Active
[24]
  Activity: Non-Toxic
[25]
  Activity: Non-Toxic
MGC-803 [26]
  Activity: Active
[27]
  Activity: Non-Toxic
[28]
  Activity: Non-Toxic
[29]
  Activity: Toxic
[30]
  Activity: Toxic
[31]
  half-life at 20 µM: 15.4 min
[32]
  half-life at 20 µM: 16.5 min
[33]
  Cmax: 176 ng/mL
[34]
  Vz: 170.8 L/kg
